Measurements from US4083947A, “Organ visualization” (The Radiochemical Centre Limited, priority 1975, dated 1978).

Assay: Tissue distribution of selenium-75-labelled sterols in rats, sixth day post-injection
Format: in vivo, rats of the C.F.Y. strain
Conditions: tail vein, dose: 1, 7: 40 μCi, 6: 50 μCi, 3: 30 μCi, 4: 1.5 μCi, 5: 10 μCi, 8: 6.3 μCi; for % dose kg./g. in Ovaries: female rats; for % dose kg./g. in Adrenals / % dose kg./g. in Blood / % dose kg./g. in Kidneys / % dose kg./g. in Liver / % dose kg./g. in Muscle: male and female rats; for % dose kg./g. in Testes: male rats; for Concentration Ratio; Adrenals: Kidneys / Concentration Ratio; Adrenals: Liver / Concentration Ratio; Adrenals: Muscle / Concentration Ratio; Adrenals: Ovaries / Concentration Ratio; Adrenals: Testes / Concentration Ratio; Adrenals: Blood: rats; for Concentration Ratio; Adrenals: Blood: 8640 min
Protocol: The tissue distribution and target to non-target concentration ratios for seven compounds were studied in male and female rats (150-180 g) of the C.F.Y. strain. Each compound (in a volume of 0.3ml) was injected via the tail vein into two male and two female rats. The animals were then housed in separate metabolism cages prior to sacrifice and dissecting on the sixth day post-injection.

SMILES | % dose kg./g. in Ovaries [% dose kg./g.] | % dose kg./g. in Adrenals [% dose kg./g.] | % dose kg./g. in Blood [% dose kg./g.] | % dose kg./g. in Kidneys [% dose kg./g.] | % dose kg./g. in Liver [% dose kg./g.] | % dose kg./g. in Muscle [% dose kg./g.] | % dose kg./g. in Testes [% dose kg./g.] | Concentration Ratio; Adrenals: Kidneys | Concentration Ratio; Adrenals: Liver | Concentration Ratio; Adrenals: Muscle | Concentration Ratio; Adrenals: Ovaries | Concentration Ratio; Adrenals: Testes | Concentration Ratio; Adrenals: Blood
CCCC[75Se]C[C@@H]1C[C@@H]2[C@H](CC[C@]3(C)[C@@H]([C@H](C)CCCC(C)C)CC[C@@H]23)C2=C1C[C@@H](O)CC2 [Example 3, 6β-butylselenomethyl-19-norcholest-5(10)-en-3β-ol-^75 Se] | 2.553 | 7.563 | 0.009 | 0.052 | 0.096 | 0.012 | 0.023 | 144.8 | 79.0 | 809.6 | 4.0 | 268.3 | 581.9
CC(C)CCC[C@@H](C)[C@H]1CC[C@H]2[C@@H]3C[C@@H](C[75Se]C4CCCCC4)C4=C(CC[C@H](O)C4)[C@H]3CC[C@]12C [Example 4, 6β-cyclohexylselenomethyl-19-norcholest-5(10)-en-3β-ol-^75 Se] | 2.568 | 3.609 | 0.026 | 0.038 | 0.148 | 0.012 | 0.034 | 75.1 | 24.9 | 303.1 | 1.6 | 89.8 | 137.4
C[75Se]C[C@@H]1C[C@@H]2[C@H](CC[C@]3(C)[C@@H]([C@H](C)CCCC(C)C)CC[C@@H]23)C2=C1C[C@@H](OC(C)=O)CC2 [Example 6, 6β-methylselenomethyl-19-norcholest-5(10)-en-3β-ol-acetate-^75 Se] | 3.232 | 12.561 | 0.025 | 0.108 | 0.074 | 0.022 | 0.041 | 116.0 | 161.1 | 536.3 | 5.7 | 166.4 | 469.2
CC(C)CCC[C@@H](C)[C@H]1CC[C@H]2[C@@H]3C[C@@H](C[75Se]c4ccccc4)C4=C(CC[C@H](O)C4)[C@H]3CC[C@]12C [Example 8, 6β-phenylselenomethyl-19-norcholest-5(10)-en-3β-ol-^75 Se] | 2.578 | 5.934 | 0.021 | 0.062 | 0.144 | 0.015 | 0.039 | 109.1 | 40.0 | 418.9 | 3.62 | 171.2 | 285.8
CC(C)CCC[C@@H](C)[C@H]1CC[C@H]2[C@@H]3C[C@@H](C[75Se](C)=O)C4=C(CC[C@H](O)C4)[C@H]3CC[C@]12C (stereo partly drawn) [Example 7, 6β-methylselenomethyl-19-norcholest-5(10)-en-3β-olselenoxide-^75 Se] | 0.817 | 4.284 | 0.022 | 0.087 | 0.091 | 0.016 | 0.046 | 49.5 | 48.3 | 274 | 5.1 | 95.2 | 202
CC(C)CCC[C@@H](C)[C@H]1CC[C@H]2[C@@H]3C[C@@H](C[75Se]Cc4ccccc4)C4=C(CC[C@H](O)C4)[C@H]3CC[C@]12C [Example 5, 6β-benzylselenomethyl-19-norcholest-5(10)-en-3β-ol-^75 Se] | 2.425 | 5.286 | 0.042 | 0.083 | 0.393 | 0.015 | 0.042 | 63.4 | 13.4 | 355.3 | 2.6 | 101.4 | 126.3
